Reference: ChEMBL document CHEMBL1777777, “Design, synthesis of symmetrical bivalent mimetics of annonaceous acetogenins and their cytotoxicities” (Bioorg Med Chem Lett, 2011)
Calls of active or inactive are those of the source. The calls are words filed in the database; no cut-off is given here.

Assays:
SGC-7901 = assay: Cytotoxicity against human SGC7901 cells after 74 hrs by MTT assay; format: functional
[1] = Cytotoxicity against human HLF cells after 74 hrs by MTT assay; format: cell-based; settings: for GI50 at 74 h: HLF cells; for GI50: hlf, 74 h
MCF7 = assay: Cytotoxicity against human MCF7 cells after 74 hrs by MTT assay; format: functional
[2] = Cytotoxicity against human BEAS2B cells after 74 hrs by MTT assay; format: cell-based, BEAS-2B; settings: for GI50 at 74 h: BEAS2B cells; for GI50: beas-2b, 74 h
HCT-116 = assay: Cytotoxicity against human HCT116 cells after 74 hrs by MTT assay; format: functional
HT-29 = assay: Cytotoxicity against human HT-29 cells after 74 hrs by MTT assay; format: functional

SMILES | GI50 (SGC-7901; SGC-7901, 74 h) [nM] | GI50 at 74 h [1] [µM] | GI50 (MCF7; MCF7, 74 h) [nM] | GI50 at 74 h [2] [µM] | GI50 (HCT-116; HCT-116, 74 h) [nM] | GI50 (HT-29; HT-29, 74 h) [nM] | GI50 (SGC-7901) | GI50 [1] | GI50 (MCF7) | GI50 [2] | GI50 (HCT-116) | GI50 (HT-29)
C[C@H]1C=C(CCCCCCCC(O)CN(C)CCCN(C)CC(O)CCCCCCCC2=C[C@H](C)OC2=O)C(=O)O1 (mixture of isomers) | 4120 | 4.42 | 2380 | 10.6 | > 10000 | 1500 |  |  |  |  |  | 
CCCCCCCCCC[C@H](O)COCCOC[C@@H](O)CCCCCCCCCCCCC1=C[C@H](C)OC1=O | 60 | > 10 | 260 | > 10 | 110 | 350 |  |  |  |  |  | 
COC1=C(OC)C(=O)C(CCCCCCCCCN2CCN(CCCCCCCCCC3=C(C)C(=O)C(OC)=C(OC)C3=O)CC2)=C(C)C1=O | 490 | > 10 | 400 | > 10 | 500 | > 10000 |  |  |  |  |  | 
C[C@H]1C=C(CCCCCCCC(O)CNCCCNCC(O)CCCCCCCC2=C[C@H](C)OC2=O)C(=O)O1 (mixture of isomers) |  |  |  |  |  |  | inactive | Not Active | inactive | Not Active | inactive | inactive
C[C@H]1C=C(CCCCCCCC(O)CN(C)CCN(C)CC(O)CCCCCCCC2=C[C@H](C)OC2=O)C(=O)O1 (mixture of isomers) | 6220 | > 10 | 3160 | > 10 |  |  |  |  |  |  | inactive | inactive
C[C@H]1C=C(CCCCCCCC(O)CN2CCN(CC(O)CCCCCCCC3=C[C@H](C)OC3=O)CC2)C(=O)O1 (mixture of isomers) | 1670 | > 10 | 2190 |  | 3720 | > 10000 |  |  |  | Not Active |  | 
COc1c(C)c(CCCCCCCCCN2CCN(CCCCCCCCCc3c(C)c(OC)c(OC)c(OC)c3OC)CC2)c(OC)c(OC)c1OC |  |  |  |  |  |  | inactive | Not Active | inactive | Not Active | inactive | inactive
C[C@H]1C=C(CCCCCCCC(O)CNc2ccc(NCC(O)CCCCCCCC3=C[C@H](C)OC3=O)cc2)C(=O)O1 (mixture of isomers) | 4400 |  | 7370 |  | 2490 | 870 |  | Not Active |  | Not Active |  | 
